Assay results taken from US20110094885A1, “Flexible Drug Delivery Chip, its Fabrication Method and Uses Thereof” (NATIONAL CHIAO TUNG UNIVERSITY, priority 2009, published 2011).

System: spontaneous SWDs
Test: Spontaneous spike-wave discharges (SWDs) in Long-Evans rats
Format: in vivo
Conditions: 0.5 ml, 28 mg/kg, i.p.; vs saline; n=8
Experimental: All rats were kept in a sound-attenuated room under a 12:12 hour light-dark cycle (07:00-19:00 lights on) with food and water provided ad libitum. The experimental procedures were reviewed and approved by the Institutional Animal Care and Use Committee. Briefly, the recording electrodes were implanted under pentobarbital anesthesia (60 mg/kg, i.p.). Subsequently, the rat was placed in a standard stereotaxic apparatus. In total, six stainless steel screws were driven bilaterally into the skull overlying the frontal (A +2.0, L 2.0 with reference to the bregma) and occipital (A −6.0, L 2.0) regions of the cortex to record cortical field potentials. A ground electrode was implanted 2 mm caudal to lambda. Dental cement was applied to fasten the connection socket to the surface of the skull. Following suturing to complete the surgery, animals were given an antibiotic (chlortetracycline) and housed individually in cages for recovery. […] In this preliminary animal test, we compared effect among saline, ethosuximide (ESM), ESM-loaded nanoparticles (ESM-Fe3O4@SiO2) and ESM-containing chip (ESM-Chip) in spontaneous SWDs of Long-Evans rats. […] In this experiment, we recorded 1-hour spontaneous brain activity before the treatment (baseline) and another 1-hour spontaneous brain activity 30 minutes after the treatment. […]

CCC1(C)CC(=O)NC1=O (centres unmarked) [ESM, ethosuximide]
SWD number: significantly decreased | total SWD duration: significantly decreased
